Numbers after ± are expanded uncertainties.
Assay: excess molar enthalpy (molar enthalpy of mixing); xn = mol fraction of the nth substance listed
Settings: 298.15 K, 101.33 kPa, Liquid, Parr 1455 Solution Calorimeter

O=Cc1ccccc1 [benzaldehyde] + CCCCCO
Settings	excess molar enthalpy [kJ/mol]
x1 = 0.0899	0.636 ± 0.0083
x1 = 0.1799	1.179 ± 0.011
x1 = 0.2699	1.59 ± 0.014
x1 = 0.36	1.82 ± 0.015
x1 = 0.4499	1.94 ± 0.016
x1 = 0.54	1.95 ± 0.016
x1 = 0.6259	1.843 ± 0.015
x1 = 0.6898	1.687 ± 0.014
x1 = 0.7523	1.494 ± 0.013
x1 = 0.8094	1.254 ± 0.011
x1 = 0.8426	1.09 ± 0.011
x1 = 0.9015	0.771 ± 0.0087

O=Cc1ccccc1 [benzaldehyde] + CCCCO
Settings	excess molar enthalpy [kJ/mol]
x1 = 0.0759	0.593 ± 0.0081
x1 = 0.1555	1.07 ± 0.011
x1 = 0.2374	1.429 ± 0.012
x1 = 0.3186	1.688 ± 0.014
x1 = 0.4053	1.818 ± 0.015
x1 = 0.4922	1.87 ± 0.015
x1 = 0.5824	1.837 ± 0.015
x1 = 0.6314	1.775 ± 0.015
x1 = 0.6755	1.698 ± 0.014
x1 = 0.7923	1.316 ± 0.012
x1 = 0.8945	0.814 ± 0.0088
x1 = 0.9245	0.612 ± 0.0087

O=Cc1ccccc1 [benzaldehyde] + CCCO
Settings	excess molar enthalpy [kJ/mol]
x1 = 0.0896	0.659 ± 0.0077
x1 = 0.1797	1.101 ± 0.01
x1 = 0.2698	1.378 ± 0.012
x1 = 0.3598	1.56 ± 0.013
x1 = 0.4822	1.636 ± 0.013
x1 = 0.5559	1.62 ± 0.013
x1 = 0.5989	1.579 ± 0.013
x1 = 0.647	1.524 ± 0.013
x1 = 0.7017	1.417 ± 0.012
x1 = 0.7626	1.258 ± 0.011
x1 = 0.8323	0.9916 ± 0.0095
x1 = 0.9112	0.612 ± 0.0073

O=Cc1ccccc1 [benzaldehyde] + CCO
Settings	excess molar enthalpy [kJ/mol]
x1 = 0.0912	0.591 ± 0.0067
x1 = 0.1809	0.9484 ± 0.0087
x1 = 0.2707	1.166 ± 0.01
x1 = 0.3603	1.266 ± 0.011
x1 = 0.4503	1.3 ± 0.011
x1 = 0.5405	1.28 ± 0.011
x1 = 0.628	1.198 ± 0.01
x1 = 0.669	1.133 ± 0.0097
x1 = 0.7164	1.04 ± 0.0091
x1 = 0.7714	0.913 ± 0.0083
x1 = 0.8358	0.709 ± 0.0072
x1 = 0.9114	0.423 ± 0.0055

O=Cc1ccccc1 [benzaldehyde] + CO
Settings	excess molar enthalpy [kJ/mol]
x1 = 0.0877	0.4 ± 0.0048
x1 = 0.1795	0.653 ± 0.0063
x1 = 0.2704	0.83 ± 0.0074
x1 = 0.3608	0.938 ± 0.0081
x1 = 0.4509	0.984 ± 0.0084
x1 = 0.5406	0.978 ± 0.0084
x1 = 0.6153	0.933 ± 0.0081
x1 = 0.6966	0.8296 ± 0.0073
x1 = 0.7344	0.7642 ± 0.007
x1 = 0.7803	0.6709 ± 0.0064
x1 = 0.8379	0.534 ± 0.0056
x1 = 0.9092	0.326 ± 0.0044

Source: the NIST ThermoML archive (doi:10.1016/j.jct.2011.05.014)
